Laboratory results reported in PubChem BioAssay AID1963986 (Molecular Pharmacology Branch, DTP, NCI, 2024).
Where “and” joins values, the source holds several entries; their conditions need not be identical. Identical values can stand only once. Blank lines part the entries; values can stand above or below the compound they belong to.

System: 171881-019-R-J1-PDC tumor spheroid viability
Experiment: Anticancer human tumor 171881-019-R-J1-PDC patient-derived invasive breast carcinoma cell line growth inhibition [PI3K]
Settings: spheroids with HUVEC and MSC; for viability, T/C: stronger effect = lower value
From the text: Combinatorial screen of targeted agents with the PI3K inhibitors inavolisib, alpelisib, duvelisib, and copanlisib in multi-cell type tumor spheroids
A high-throughput screen of multi-cell type tumor spheroids was designed to identify active combinations of targeted small molecules and PI3K pathway inhibitors. Complex spheroids include a stromal component modeled by human endothelial cells (HUVEC) and fibroblasts modeled by human mesenchymal stem cells (MSCs). The concentration ranges selected for each drug and investigational agent were based upon clinically achievable concentrations if the clinical Cmax of the agent was known.
Compounds. The drugs and investigational agents: inavolisib (NSC800729), alpelisib (NSC765974), duvelisib (NSC772469), copanlisib (NSC816437), ipatasertib (NSC767898), afuresertib (NSC778305), talazoparib (NSC767125), sapanisertib (NSC764658), selumetinib (NSC741078), tovorafenib (DAY101, NSC766906), vemurafenib (NSC761431), ravoxertinib (NSC781343), sotorasib (NSC818433), MRTX1133 (NSC 836407), abemaciclib (NSC 768073), palbociclib (NSC758247), venetoclax (NSC 766270), SY5609 (NSC837396), enzalutamide (NSC755605), and darolutamide (NSC825331), were obtained from the National Cancer Institute (NCI) Developmental Therapeutics Program Chemical Repository. The FDA-approved anticancer drug set is available from the NCI Developmental Therapeutics Program. […] The stock solutions were prepared in dimethyl sulfoxide (DMSO, Sigma-Aldrich, St. Louis, MO, cat. D2650) at 800-fold the tested concentration and stored at -70 degrees C prior to their use. All drugs and investigational agents were tested over a range starting from a high concentration at or near the clinical Cmax and decreasing in half-log increments. If the clinical Cmax for an agent had not been determined, the highest concentration tested was 10 microM.
Cell Culture. All cells were maintained in an incubator at 37 degrees C and 5% CO2 with 95% humidity. The PDC lines were cultured according to standard operating procedures established by the NCI PDMR (https://pdmr.cancer.gov/sops/default.htm). All PDCs were thawed and cultured in Matrigel-coated flasks prepared with a working solution of 1X Ham's F-12 nutrient mix, without supplementation (Invitrogen, Waltham, MA, cat. 11765054), 100 U/mL penicillin-streptomycin (Invitrogen, cat. 15140122), and 2.5% Matrigel (Corning Inc., Corning, NY, cat. 354248) for the first three passages. The 354836-022-R-J1-PDC, 475296-252-R-J1-PDC, and 997726-040-R-J2-PDC lines were cultured in 6A media, which includes advanced DMEM/F-12 (Thermo Fisher Scientific, cat. 12634028), 10 mM HEPES (Thermo Fisher Scientific, cat. 15630080), 1X GlutaMAX supplement (Thermo Fisher Scientific, cat. 35050061), 0.1 mg/mL primocin (InvivoGen, San Diego, CA, cat. ant-pm-2), 10% defined fetal bovine serum, heat inactivated (HyClone Laboratories Inc., Logan, UT, cat. SH30070.03HI), 50% L-WRN conditioned media (ATCC, cat. CRL-3276), 1.25 mM N-Acetyl-L-cysteine (Sigma-Aldrich, cat. A9165), 10 mM nicotinamide (Sigma-Aldrich, cat. N0636), 1X B-27 supplement (Thermo Fisher Scientific, cat. 17504044), 1X N-2 supplement (Thermo Fisher Scientific, cat. 17502048), and 10 microM Y-27632 dihydrochloride (Tocris Bioscience, Bristol, United Kingdom, cat. 1254). The 624824-186-R-J2-PDC line was cultured in 6C/Colon 1B media, which includes all 6A media components plus 50 ng/mL human EGF recombinant protein (Thermo Fisher Scientific, cat. PHG0311). […]

[1] = curve of first compound, second compound 0.00316 µM
[2] = curve of first compound, second compound 0.01 µM
[3] = curve of first compound, second compound 0.0316 µM
[4] = curve of first compound, second compound 0.1 µM
[5] = curve of first compound, second compound 0.316 µM
[6] = curve of first compound, second compound 1 µM
[7] = second compound 0.00316 µM, first compound 0.0316 µM
[8] = second compound 0.00316 µM, first compound 0.1 µM
[9] = second compound 0.00316 µM, first compound 0.316 µM
[10] = second compound 0.00316 µM, first compound 1 µM
[11] = second compound 0.00316 µM, first compound 3.16 µM
[12] = second compound 0.00316 µM, first compound 10 µM
[13] = second compound 0.01 µM, first compound 0.0316 µM
[14] = second compound 0.01 µM, first compound 0.1 µM
[15] = second compound 0.01 µM, first compound 0.316 µM
[16] = second compound 0.01 µM, first compound 1 µM
[17] = second compound 0.01 µM, first compound 3.16 µM
[18] = second compound 0.01 µM, first compound 10 µM
[19] = second compound 0.0316 µM, first compound 0.0316 µM
[20] = second compound 0.0316 µM, first compound 0.1 µM
[21] = second compound 0.0316 µM, first compound 0.316 µM
[22] = second compound 0.0316 µM, first compound 1 µM
[23] = second compound 0.0316 µM, first compound 3.16 µM
[24] = second compound 0.0316 µM, first compound 10 µM
[25] = second compound 0.1 µM, first compound 0.0316 µM
[26] = second compound 0.1 µM, first compound 0.1 µM
[27] = second compound 0.1 µM, first compound 0.316 µM
[28] = second compound 0.1 µM, first compound 1 µM
[29] = second compound 0.1 µM, first compound 3.16 µM
[30] = second compound 0.1 µM, first compound 10 µM
[31] = second compound 0.316 µM, first compound 0.0316 µM
[32] = second compound 0.316 µM, first compound 0.1 µM
[33] = second compound 0.316 µM, first compound 0.316 µM
[34] = second compound 0.316 µM, first compound 1 µM
[35] = second compound 0.316 µM, first compound 3.16 µM
[36] = second compound 0.316 µM, first compound 10 µM
[37] = second compound 1 µM, first compound 0.0316 µM
[38] = second compound 1 µM, first compound 0.1 µM
[39] = second compound 1 µM, first compound 0.316 µM
[40] = second compound 1 µM, first compound 1 µM
[41] = second compound 1 µM, first compound 3.16 µM
[42] = second compound 1 µM, first compound 10 µM
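Also: spheroids exposed to compound for 7 days before viability read.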
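For viability, T/C in this document: 100% = DMSO vehicle-treated spheroids.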

- IC50 [1]: 187 nM
- IC50 [2]: 99.6 nM
- IC50 [3]: < 31.6 nM
- IC50 [4]: < 31.6 nM
- IC50 [5]: < 31.6 nM
- IC50 [6]: < 31.6 nM
Structure (SMILES): C#Cc1c(F)ccc2cc(O)cc(-c3ncc4c(N5CC6CCC(C5)N6)nc(OCC56CCCN5CC(F)C6)nc4c3F)c12 (stereo unspecified) + CC(Nc1ccc2c(c1)OCCn1cc(N3C(=O)OCC3C(F)F)nc1-2)C(N)=O
- viability, T/C [7]: 72.4%
- viability, T/C [8]: 57.1%
- viability, T/C [9]: 44.4%
- viability, T/C [10]: 32.8%
- viability, T/C [11]: 28.8%
- viability, T/C [12]: 22%
- viability, T/C [13]: 65%
- viability, T/C [14]: 51.7%
- viability, T/C [15]: 32%
- viability, T/C [16]: 27.5%
- viability, T/C [17]: 22.2%
- viability, T/C [18]: 17.1%
- viability, T/C [19]: 42.7%
- viability, T/C [20]: 37.2%
- viability, T/C [21]: 26.4%
- viability, T/C [22]: 18.3%
- viability, T/C [23]: 14.9%
- viability, T/C [24]: 12.7%
- viability, T/C [25]: 31.1%
- viability, T/C [26]: 23.6%
- viability, T/C [27]: 15.6%
- viability, T/C [28]: 11.9%
- viability, T/C [29]: 9.09%
- viability, T/C [30]: 8.33%
- viability, T/C [31]: 21.1%
- viability, T/C [32]: 15.7%
- viability, T/C [33]: 10.4%
- viability, T/C [34]: 7.74%
- viability, T/C [35]: 6.88%
- viability, T/C [36]: 6.22%
- viability, T/C [37]: 17.2%
- viability, T/C [38]: 12.3%
- viability, T/C [39]: 7.9%
- viability, T/C [40]: 7.17%
- viability, T/C [41]: 5.55%
- viability, T/C [42]: 4.36%

- IC50 [1]: 61.3 nM
- IC50 [2]: < 31.6 nM
- IC50 [3]: < 31.6 nM
- IC50 [4]: < 31.6 nM
- IC50 [5]: < 31.6 nM
- IC50 [6]: < 31.6 nM
Structure (SMILES): C#Cc1c(F)ccc2cc(O)cc(-c3ncc4c(N5CC6CCC(C5)N6)nc(OCC56CCCN5CC(F)C6)nc4c3F)c12 (stereo unspecified) + COc1c(OCCCN2CCOCC2)ccc2c3n(c(=NC(=O)c4cnc(N)nc4)nc12)CCN3
- viability, T/C [7]: 53.6%
- viability, T/C [8]: 48.2%
- viability, T/C [9]: 30%
- viability, T/C [10]: 20.7%
- viability, T/C [11]: 15.8%
- viability, T/C [12]: 12.8%
- viability, T/C [13]: 38.2%
- viability, T/C [14]: 31.8%
- viability, T/C [15]: 20.4%
- viability, T/C [16]: 15.1%
- viability, T/C [17]: 10.3%
- viability, T/C [18]: 9.69%
- viability, T/C [19]: 18.9%
- viability, T/C [20]: 14.8%
- viability, T/C [21]: 10%
- viability, T/C [22]: 6.62%
- viability, T/C [23]: 5.52%
- viability, T/C [24]: 4.3%
- viability, T/C [25]: 6.23%
- viability, T/C [26]: 4.84%
- viability, T/C [27]: 3.8%
- viability, T/C [28]: 3.03%
- viability, T/C [29]: 2.87%
- viability, T/C [30]: 1.74%
- viability, T/C [31]: 1.68%
- viability, T/C [32]: 1.75%
- viability, T/C [33]: 1.34%
- viability, T/C [34]: 1.08%
- viability, T/C [35]: 0.99%
- viability, T/C [36]: 0.17%
- viability, T/C [37]: 0.8%
- viability, T/C [38]: 0.83%
- viability, T/C [39]: 0.78%
- viability, T/C [40]: 0.83%
- viability, T/C [41]: 0.68%
- viability, T/C [42]: 0.29%

- IC50 (curve of compound): 376 nM [middle of 4 runs]
Structure (SMILES): CC(C)NCC(C(=O)N1CCN(c2ncnc3c2C(C)CC3O)CC1)c1ccc(Cl)cc1 (stereo unspecified)
- viability, T/C (compound 0.0316 µM): 85.8% [middle of 4 runs]
- viability, T/C (compound 0.1 µM): 76.4% [middle of 4 runs]
- viability, T/C (compound 0.316 µM): 57.3% (2×) and 54.7% and 53.9%
- viability, T/C (compound 1 µM): 27.4% [middle of 4 runs]
- viability, T/C (compound 3.16 µM): 17.1% [middle of 4 runs]
- viability, T/C (compound 10 µM): 9.96% [middle of 4 runs]
